Tested on: status epilepticus (SE) induced by lithium-pilocarpine (LP)
Test: Status epilepticus induced by lithium-pilocarpine in rats receiving TFS, alone and combined with subeffective doses of diazepam
Format: in vivo
From the text: This study was designed to evaluate status epilepticus (SE) induced by lithium-pilocarpine (LP) in rats receiving TFS, alone and combined with subeffective doses of diazepam, an antiepileptic drug that belongs to the group of benzodiazepines. Diazepam is currently considered one of the drugs of choice to stop SE.

[1] = LP+TFS+DZP group compared with LP, LP+DZP and LP+TFS groups, p<0.001

CN1C(=O)CN=C(c2ccccc2)c2cc(Cl)ccc21 [diazepam]
latency to mild generalized seizure [1]: significantly increased
latency to the establishment of the SE [1]: significantly increased
latency to the first forelimb clonus [1]: significantly increased
total protection against LP-induced seizures and SE, animals (subeffective dose of diazepam combined with TFS (LP+TFS+DZP group), p<0.0001 vs LP, p<0.003 vs LP+DZP): 62%
latency and incidence of LP-induced behavioral alterations (subeffective doses of diazepam administered prior to the pilocarpine, without TFS, in comparison to the LP group): Non-significant changes
rats presenting seizures and SE (subeffective doses of diazepam prior to pilocarpine, without TFS (LP+DZP group)): All rats presented seizures and SE
